Reference: patent US11253516B2, “N2,N4-diphenylpyrimidine-2,4-diamine derivative, method for preparing same, and pharmaceutical composition containing same as active ingredient for prevention or treatment of cancer” (Korea Research Institute of Chemical Technology, priority 2017, dated 2022)
Like-named read-outs stand apart in the source and are kept apart here.

Experiments:
EGFR del19 = EGFR del19 (Homo sapiens (Human), UniProt P00533, DEL746-750); assay: HTRF enzyme assay, EGFR del19; format: biochemical; settings: recombinant enzyme
EGFR del19, sequence (P00533 other isoform, or with tags, fused parts or gaps del 1-668/del 746-750 limits assumed): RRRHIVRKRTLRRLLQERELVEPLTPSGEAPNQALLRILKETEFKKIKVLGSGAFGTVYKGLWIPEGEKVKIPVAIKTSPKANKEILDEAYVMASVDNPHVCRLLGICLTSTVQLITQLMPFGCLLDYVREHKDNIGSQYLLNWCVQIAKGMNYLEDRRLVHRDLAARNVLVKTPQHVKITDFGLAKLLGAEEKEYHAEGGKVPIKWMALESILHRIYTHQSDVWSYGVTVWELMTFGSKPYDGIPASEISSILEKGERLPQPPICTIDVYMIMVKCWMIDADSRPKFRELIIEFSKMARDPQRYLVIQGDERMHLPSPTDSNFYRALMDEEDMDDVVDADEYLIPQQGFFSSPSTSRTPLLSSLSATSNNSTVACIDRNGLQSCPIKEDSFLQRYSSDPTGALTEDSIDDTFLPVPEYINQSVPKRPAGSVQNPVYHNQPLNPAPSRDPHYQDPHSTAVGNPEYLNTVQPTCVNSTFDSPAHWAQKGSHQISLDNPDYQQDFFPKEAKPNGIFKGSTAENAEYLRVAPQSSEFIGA
Method: (§1) The measurement of an activity on wild-type and EGFR mutation enzyme of the compound of the present invention was experimented by utilizing the HTRF system sold by Cisbio, as follow.
(§2) The composition of the assay buffer used in the activity measurement was 50 mM Tris-HCl pH 7.5, 100 mM NaCl, 7.5 mM MgCl2, 3 mM KCl, 0.01% Tween 20, 0.1% BSA, 1 mM DTT. The enzymatic reaction was carried out hereto by using the peptide substrate labeled with ATP of […] concentration and biotin of […] concentration. The analysis of an EGFR activity inhibitory effect of the compound was carried out in accordance with the analysis reaction recipe below.
(§3) Component 1: […] of EGFR wild-type or mutation enzyme
(§4) Component 2: […] of compound solution
(§5) Component 3: […] of peptide labeled with ATP and biotin
(§6) The enzymatic reaction was initiated by mixing Component 1 and Component 2 first, and then, adding component 3. After the reaction for 2 hours at 37° C., […] of a measurement solution consisting of streptavidin-XL665 provided by Cisbio and anti-phosphotyrosine antibody labeled with europium was added to the enzymatic reaction solution and reacted for 1 hour at ambient temperature. […] The measurement values measured at the seven concentrations of the compound were analyzed by using the Prism program (version 5.01, Graphpad Software, Inc.), and IC50 value of the compound was calculated, which is an inhibitory ability indicator.

EGFR del19/T790M/C797S = EGFR del19/T790M/C797S (Homo sapiens, UniProt P00533, C797S/DEL746-750/T790M); assay: HTRF enzyme assay, EGFR del19/T790M/C797S; format: biochemical
EGFR del19/T790M/C797S, sequence (P00533 with tags, fused parts or gaps C797S/DEL746-750/T790M limits assumed): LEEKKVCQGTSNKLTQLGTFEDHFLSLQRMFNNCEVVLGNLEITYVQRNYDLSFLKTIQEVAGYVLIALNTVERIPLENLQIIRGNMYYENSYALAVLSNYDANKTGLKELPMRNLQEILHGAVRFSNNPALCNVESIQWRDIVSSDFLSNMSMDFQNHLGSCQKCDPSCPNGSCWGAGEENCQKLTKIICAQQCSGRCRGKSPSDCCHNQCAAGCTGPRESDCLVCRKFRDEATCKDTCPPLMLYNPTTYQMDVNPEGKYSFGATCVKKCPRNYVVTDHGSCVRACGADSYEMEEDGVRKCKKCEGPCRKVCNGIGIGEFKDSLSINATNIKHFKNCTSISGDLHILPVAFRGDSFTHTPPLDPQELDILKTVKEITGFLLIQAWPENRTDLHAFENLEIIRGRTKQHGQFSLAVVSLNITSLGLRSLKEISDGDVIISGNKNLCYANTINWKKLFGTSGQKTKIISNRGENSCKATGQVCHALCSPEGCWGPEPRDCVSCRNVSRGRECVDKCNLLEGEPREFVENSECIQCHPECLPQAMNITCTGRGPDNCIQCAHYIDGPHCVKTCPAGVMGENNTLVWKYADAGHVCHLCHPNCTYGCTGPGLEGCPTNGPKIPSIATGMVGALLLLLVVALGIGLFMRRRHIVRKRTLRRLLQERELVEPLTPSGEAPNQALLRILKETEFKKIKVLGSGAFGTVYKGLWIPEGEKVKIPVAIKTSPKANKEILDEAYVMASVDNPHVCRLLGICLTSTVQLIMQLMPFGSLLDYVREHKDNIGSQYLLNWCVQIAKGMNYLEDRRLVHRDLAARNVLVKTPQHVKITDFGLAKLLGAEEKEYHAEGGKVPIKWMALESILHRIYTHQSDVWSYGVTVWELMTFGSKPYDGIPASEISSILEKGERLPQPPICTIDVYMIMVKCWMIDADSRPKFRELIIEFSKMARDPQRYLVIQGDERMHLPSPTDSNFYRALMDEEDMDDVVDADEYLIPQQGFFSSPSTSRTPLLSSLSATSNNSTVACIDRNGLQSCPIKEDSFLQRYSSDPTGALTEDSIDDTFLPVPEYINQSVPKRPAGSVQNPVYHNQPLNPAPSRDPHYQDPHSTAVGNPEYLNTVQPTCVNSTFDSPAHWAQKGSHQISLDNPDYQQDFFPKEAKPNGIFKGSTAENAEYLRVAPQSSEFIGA
Method: as §1, §2, §3, §4, §5, §6

Ba/F3 EGFR wt. cell line = assay: CellTiter-Glo cell viability, Ba/F3 EGFR wild-type; format: cell-based; settings: 72 hours
Method: (§7) The measurement of an activity on wild-type and mutation Ba/F3 EGFR cell line of the compound of the present invention was experimented by utilizing the CellTiter-Glo system sold by Promega, as follow. The CellTiter-Glo assay is a method for measuring the ATP present in cells in cell culture conditions to determine the cell viability.
(§8) The analysis of an EGFR inhibitory ability effect of the compound was carried out in accordance with the analysis reaction recipe below.
After the reaction of 72 hours, the plate treated with the compound was allowed to stand for 30 minutes at ambient temperature, and then, was further treated with 100 μl of the reagent, and was shaked for 10 minutes at ambient temperature. […] The measurement values measured at the eight concentrations of the compound were analyzed by using the Prism program (version 5.01, Graphpad Software, Inc.), and IC50 value of the compound was calculated, which is an inhibitory ability indicator.

[1] = test system: Ba/F3 EGFR del19/T790M cell line; assay: CellTiter-Glo cell viability, Ba/F3 EGFR del19/T790M; format: cell-based; settings: read-out: Ba/F3 EGFR del19/T790M IC50
Method: as §7, §8
(§9) After the reaction of 72 hours, the plate treated with the compound was allowed to stand for 30 minutes at ambient temperature, and then, was further treated with 100 μl of the reagent, and was shaked for 10 minutes at ambient temperature.

[2] = test system: Ba/F3 EGFR del19/T790M/C797S cell line; assay: CellTiter-Glo cell viability, Ba/F3 EGFR del19/T790M/C797S; format: cell-based; settings: read-out: Ba/F3 EGFR del19/T790M/C797S IC50
Method: as §7, §8, §9

FLT3(D835V) = FLT3(D835V) (Homo sapiens (Human), UniProt P36888, D835V); assay: KINOMEscan binding, FLT3(D835V)
Method: (§10) The inhibitory activity on FLT kinase, such as wild-type FLT1, FLT3, FLT4, and FLT3 mutation forms, FLT3(D835H), FLT3(D835V), FLT3(D835Y), FLT3(ITD), FLT3(ITD,D835V), FLT3(ITD,F691L), FLT3(K663Q), FLT3(N841I), FLT3(R834Q) was measured.
(§11) FLT3 kinase inhibition was carried out by KINOMEscan method (DiscoverX Inc.). KINOMEscan method consists of the following processes. T7 bacteriophage labeled with FLT kinase was cultured by the infection to E. coli derived from BL21. After the infection of E. coli in the condition of 0.4 of MOI (multiplicity of infection), it was cultured for 90 to 150 minutes at 32° C. to lyse E. coli. The cell debris was removed by centrifugation and filtration, and the kinase protein present in the supernatant was secured. Additionally, the kinase protein was labeled with DNA for the qPCR measurement. The magnetic beads labeled with streptavidin were treated with the standard compound labeled with biotin and reacted for 30 minutes. The resulting beads were used as affinity beads for the measurement of a kinase activity. The binding reaction was initiated with mixing a kinase protein, the affinity beads bound with a ligand, and the compound. In this case, the used buffer solution was 20% SeaBlock, 0.17×PBS, 0.05% Tween 20, 6 mM DTT. […] The affinity of the compound to be tested was indirectly measured by Quantifying the eluted kinase by […].

FLT3(D835Y) = FLT3(D835Y) (Homo sapiens (Human), UniProt P36888, D835Y); assay: KINOMEscan binding, FLT3(D835Y)
Method: as §10, §11

FLT3(ITD) = FLT3(ITD) (Homo sapiens, UniProt P36888, ITD); assay: KINOMEscan binding, FLT3(ITD)
Method: as §10, §11

FLT3(ITD, D835V) = FLT3(ITD, D835V) (Homo sapiens, UniProt P36888, D835V/ITD); assay: KINOMEscan binding, FLT3(ITD, D835V)
Method: as §10, §11

FLT3(ITD, F691L) = FLT3(ITD, F691L) (Homo sapiens, UniProt P36888, F691L/ITD); assay: KINOMEscan binding, FLT3(ITD, F691L)
Method: as §10, §11

FLT3(K663Q) = FLT3(K663Q) (Homo sapiens (Human), UniProt P36888, K663Q); assay: KINOMEscan binding, FLT3(K663Q)
Method: as §10, §11

FLT3(N841I) = FLT3(N841I) (Homo sapiens (Human), UniProt P36888, N841I); assay: KINOMEscan binding, FLT3(N841I)
Method: as §10, §11

Compound | IC50 (EGFR del19) [nM] | IC50 (EGFR del19/T790M/C797S) [nM] | IC50 (Ba/F3 EGFR wt. cell line) [nM] | IC50 ([1]; 72 h) [nM] | IC50 ([2]; 72 h) [nM] | Kd (FLT3(D835V)) [nM] | Kd (FLT3(D835Y)) [nM] | Kd (FLT3(ITD)) [nM] | Kd (FLT3(ITD, D835V)) [nM] | Kd (FLT3(ITD, F691L)) [nM] | Kd (FLT3(K663Q)) [nM] | Kd (FLT3(N841I)) [nM] | IC50 (EGFR del19/T790M/C797S; HTRF, recombinant enzyme, read-out: EGFR del19/T790M/C797S IC50) [nM] | IC50 ([1]; CellTiter-Glo, 72 hours) [nM] | IC50 ([2]; CellTiter-Glo, 72 hours) [nM]
COc1cc(N2CCC(N3CCN(C)CC3)CC2)ccc1Nc1ncc(Cl)c(Nc2ccccc2NS(C)(=O)=O)n1 [Example 10, N-(2-((5-chloro-2-((2-methoxy-4-(4-(4-methylpiperazin-1-yl)piperidin-1-yl)phenyl)amino)pyrimidin-4-yl)amino)phenyl)methanesulfonamide] | 0.7 | 0.2 | 1000 | 99 | 63 | 0.29 | 4.2 | 18 | 0.32 | 1.1 | 39 | 6.5 | – | – | –
COc1cc(N2CCC(N(C)C)CC2)ccc1Nc1ncc(Cl)c(Nc2ccccc2NS(C)(=O)=O)n1 [Example 11, N-(2-((5-chloro-2-((4-(4-(dimethylamino)piperidin-1-yl)-2-methoxyphenyl)amino)pyrimidin-4-yl)amino)phenyl)methanesulfonamide] | 7.8 | – | 340 | – | – | 0.082 | 1.5 | 4.2 | 0.16 | 0.27 | 20 | 3.8 | 6 | 31 | 38
